The source of these data is patent US20080161344A1, “Melanin Concentrating Hormone Receptor Ligands: Substituted Tetrahydroisoquinoline Analogues” (priority 2004, published 2008).

The target of the first experiment is MCH receptor (MCH1) (Macaca fascicularis, UniProt A0A2K5VT41). The experiment in a line: Melanin concentrating hormone receptor binding assay (125I-Tyr MCH competition, membranes of transfected HEK293 cells).
Sequence of MCH receptor (MCH1) (A0A2K5VT41 entry or part of it): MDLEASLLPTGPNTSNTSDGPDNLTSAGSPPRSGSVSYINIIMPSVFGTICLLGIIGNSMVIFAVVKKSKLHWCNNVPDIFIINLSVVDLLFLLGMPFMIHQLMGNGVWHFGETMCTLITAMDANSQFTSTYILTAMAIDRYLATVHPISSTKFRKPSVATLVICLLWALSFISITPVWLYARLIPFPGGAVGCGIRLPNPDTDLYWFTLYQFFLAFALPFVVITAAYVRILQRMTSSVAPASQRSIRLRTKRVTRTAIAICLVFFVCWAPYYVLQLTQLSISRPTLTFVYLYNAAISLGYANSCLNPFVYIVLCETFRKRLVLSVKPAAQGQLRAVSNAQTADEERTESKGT
Settings: not given
Also noted: species or system Cynomolgus macaque. The procedure:
This Example illustrates a standard assay of melanin concentrating hormone receptor binding that may be used to determine the binding affinity of compounds for the MCH receptor.
Cynomolgus macaque hypothalamus MCH1 cDNA is prepared and cloned into PCDNA3.1 (INVITROGEN Corp., Carlsbad, Calif.), and HEK293 cells (American Type Culture Collection, Manassas, Va.) are stably transfected with the MCH1 expression vector as described in PCT International Application publication number WO/03/059289, which published on Jul. 24, 2003. The disclosure of WO 03/059289 at page 52 directed to the preparation and storage of the transfected HEK293 cells is hereby incorporated by reference.
At the time of assay, pellets are thawed by addition of wash buffer (25 mM Hepes with 1.0 mM CaCl2, 5.0 mM MgCl2, 120 mM NaCl, pH 7.4) and homogenized for 30 seconds using a BRINKMAN POLYTRON, setting 5. Cells are centrifuged for 10 minutes at 48,000×g. The supernatant is discarded and the pellet is resuspended in fresh wash buffer, and homogenized again. An aliquot of this membrane homogenate is used to determine protein concentration via the Bradford method (BIO-RAD Protein Assay Kit, #500-0001, BIO-RAD, Hercules, Calif.). By this measure, a 1-liter culture of cells typically yields 50-75 mg of total membrane protein. The homogenate is centrifuged as before and resuspended to a protein concentration of 333 μg/mL in binding buffer (Wash buffer+0.1% BSA and 1.0 μM final phosphoramidon) for an assay volume of 50 μg membrane protein/150 μl binding buffer. Phosphoramidon was from SIGMA BIOCHEMICALS, St. Louis, Mo. (cat# R-7385).
Competition binding assays are performed at room temperature in Falcon 96 well round bottom polypropylene plates. Each assay well contains 150 μL of MCH receptor-containing membranes described above, 50 μL ^125I-Tyr MCH, 50 μL binding buffer, and 2 μL test compound in DMSO. ^125I-Tyr MCH (specific activity=2200 Ci/mmol) is purchased from NEN (Boston, Mass.) and is diluted in binding buffer to provide a final assay concentration of 30 pM.
Non-specific binding is defined as the binding measured in the presence of 1 μM unlabeled MCH. MCH is purchased from BACHEM U.S.A., King of Prussia, Pa. (cat #H-1482). Assay wells used to determine MCH binding contain 150 μL of MCH receptor containing membranes, 50 μL ^125I-Tyr MCH, 25 μL binding buffer and 25 μL binding buffer.
Assay plates are incubated for 1 hour at room temperature. Membranes are harvested onto WALLAC™ glass fiber filters (PERKIN-ELMER, Gaithersburg, Md.) which were pre-soaked with 1.0% PEI (polyethyleneimine) for 2 hours prior to use. Filters are allowed to dry overnight, and then counted in a WALLAC 1205 BETA PLATE counter after addition of WALLAC BETA SCINT™ scintillation fluid.
For saturation binding, the concentration of ^125I-Tyr MCH is varied from 7 to 1,000 pM. Typically, 11 concentration points are collected per saturation binding curve. Equilibrium binding parameters are determined by fitting the allosteric Hill equation to the measured values with the aid of the computer program FitP™ (BIOSOFT, Ferguson, Mo.).
On to `COc1cc2c(cc1OC)CN(Cc1cccc(Oc3ccc(C)cc3)c1)CC2` [Compound 3, 6,7-dimethoxy-2-(3-p-tolyloxy-benzyl)-1,2,3,4-tetrahydroisoquinoline], for which the Ki (usually the equilibrium dissociation constant of an inhibitor or competing ligand from its target) was less than 1000 nM. As for `COc1cc2c(cc1OC)CN(Cc1cccc(Oc3ccc(C(C)(C)C)cc3)c1)CC2` [Compound 1, 2-[3-(4-tert-Butyl-phenoxy)-benzyl]-6,7-dimethoxy-1,2,3,4-tetrahydroisoquinoline], the Ki was less than 1000 nM. For the molecule `COc1cc2c(cc1OC)CN(Cc1ccnc(Oc3ccc(C(C)(C)C)cc3)c1)CC2` [Compound 5, 2-[2-(4-tert-Butyl-phenoxy)-pyridin-4-ylmethyl]-6,7-dimethoxy-1,2,3,4-tetrahydroisoquinoline], the Ki is less than 1000 nM.

Staying with this experiment, now noted: MCH receptor binding assay of Example 2; class symbol; read-out: Ki.
On to `CCOc1cc2c(cc1OC)CN(Cc1cccc(Oc3ccc(C(C)(C)C)cc3)c1)CC2` [Compound 29, 2-[3-(4-tert-Butyl-phenoxy)-benzyl]-6-ethoxy-7-methoxy-1,2,3,4-tetrahydroisoquinoline], for which the Ki was less than 1000 nM. With `COc1cc2c(cc1OC)CN(Cc1cccc(Cc3ccccc3)c1)CC2` [Compound 10, 2-(3-Benzyl-benzyl)-6,7-dimethoxy-1,2,3,4-tetrahydroisoquinoline], the Ki is less than 1000 nM. With `COc1cc2c(cc1OC)CN(Cc1cccc(Oc3ccc(Cl)cc3)c1)CC2` [Compound 21, 2-[3-(4-Chloro-phenoxy)-benzyl]-6,7-dimethoxy-1,2,3,4-tetrahydroisoquinoline], the Ki was less than 1000 nM.

For `CCOc1cc2c(cc1OC)CCN(Cc1ccnc(Oc3ccc(C(C)C)cc3)c1)C2` [Compound 53, 7-Ethoxy-2-[2-(4-isopropyl-phenoxy)-pyridin-4-ylmethyl]-6-methoxy-1,2,3,4-tetrahydroisoquinoline], the Ki is less than 1000 nM. Same read-out and setting: under `COc1ccc(Oc2cccc(CN3CCc4cc(OC)c(OC)cc4C3)c2)cc1` [Compound 47, 6,7-Dimethoxy-2-[3-(4-methoxy-phenoxy)-benzyl]-1,2,3,4-tetrahydroisoquinoline] stands less than 1000 nM. Still for that read-out and setting: under `COc1cc2c(cc1OC)CN(Cc1cccc(Oc3ccccc3)c1)CC2` [Compound 43, 6,7-Dimethoxy-2-(3-phenoxy-benzyl)-1,2,3,4-tetrahydroisoquinoline] stands less than 1000 nM. Regarding `CCOc1ccc(Oc2cccc(CN3CCc4cc(OC)c(OC)cc4C3)c2)cc1` [Compound 22, 2-[3-(4-Ethoxy-phenoxy)-benzyl]-6,7-dimethoxy-1,2,3,4-tetrahydroisoquinoline], the Ki is less than 1000 nM.

For `COc1cc2c(cc1OC)CN(Cc1cccc(Oc3ccc(C(C)C)cc3)c1)CC2` [Compound 23, 2-[3-(4-Isopropyl-phenoxy)-benzyl]-6,7-dimethoxy-1,2,3,4-tetrahydroisoquinoline], the Ki was less than 1000 nM. Same read-out and setting: under `COc1cc2c(cc1OC)CN(Cc1cccc(Oc3ccc(C(F)(F)F)cc3)c1)CC2` [Compound 50, 6,7-Dimethoxy-2-[3-(4-trifluoromethyl-phenoxy)-benzyl]-1,2,3,4-tetrahydroisoquinoline] stands less than 1000 nM; under `COc1cc2c(cc1OC)CN(Cc1cccc(Oc3ccc(C(C)(C)C)cc3)n1)CC2` [Compound 34, 2-[6-(4-tert-Butyl-phenoxy)-pyridin-2-ylmethyl]-6,7-dimethoxy-1,2,3,4-tetrahydroisoquinoline], less than 1000 nM. On to `CC(C)(C)c1ccc(Oc2cccc(CN3CCc4cc5c(cc4C3)OCO5)c2)cc1` [Compound 52, 6-[3-(4-tert-Butyl-phenoxy)-benzyl]-5,6,7,8-tetrahydro-[1,3]dioxolo[4,5-g]isoquinoline], for which the Ki is less than 1000 nM. Still for that read-out and setting: under `COc1cc2c(cc1OC)CN(Cc1cccc(Oc3ccc(C#N)cc3)c1)CC2` [Compound 42, 4-[3-(6,7-Dimethoxy-3,4-dihydro-1H-isoquinolin-2-ylmethyl)-phenoxy]-benzonitrile] stands less than 1000 nM; under `CCOc1cc2c(cc1OC)CCN(Cc1cccc(Oc3ccc(C(C)(C)C)cc3)c1)C2` [Compound 31, 2-[3-(4-tert-Butyl-phenoxy)-benzyl]-7-ethoxy-6-methoxy-1,2,3,4-tetrahydroisoquinoline], less than 1000 nM; under `COc1cc2c(cc1OC)CN(Cc1cccc(Oc3ccc(OC(F)(F)F)cc3)c1)CC2` [Compound 49, 6,7-Dimethoxy-2-[3-(4-trifluoromethoxy-phenoxy)-benzyl]-1,2,3,4-tetrahydroisoquinoline], less than 1000 nM. On the same count and under the same terms, under `CCOc1cc2c(cc1OCC)CN(Cc1cccc(Oc3ccc(C(C)(C)C)cc3)c1)CC2` [Compound 26, 2-[3-(4-tert-Butyl-phenoxy)-benzyl]-6,7-diethoxy-1,2,3,4-tetrahydroisoquinoline] stands less than 1000 nM; under `COc1cc2c(cc1OC)CN(Cc1ccnc(Oc3ccc(C(C)C)cc3)c1)CC2` [Compound 19, 2-[2-(4-Isopropyl-phenoxy)-pyridin-4-ylmethyl]-6,7-dimethoxy-1,2,3,4-tetrahydroisoquinoline], less than 1000 nM.
